Laboratory results from patent publication US10414763B2 (CANCER RESEARCH TECHNOLOGY LIMITED, priority 2014, dated 2019).
pIC50: −log10 of the molar value.

The molecules below were run against T1, full-length human PKCι (Homo sapiens, UniProt P41743) (assay: PKCι IC50 IMAP fluorescence polarisation assay, full-length enzyme, 150 μM ATP). Details: read-out: IC50 in IMAP assay against full length PKCi at 150 μM ATP.
T1 construct: Recombinant, full-length human PKCι expressed in Sf21 insect cells is also commercially available; purchased EMD Millipore; host or cells: Sf21 insect cells (baculovirus)
T1 sequence (P41743 1-596): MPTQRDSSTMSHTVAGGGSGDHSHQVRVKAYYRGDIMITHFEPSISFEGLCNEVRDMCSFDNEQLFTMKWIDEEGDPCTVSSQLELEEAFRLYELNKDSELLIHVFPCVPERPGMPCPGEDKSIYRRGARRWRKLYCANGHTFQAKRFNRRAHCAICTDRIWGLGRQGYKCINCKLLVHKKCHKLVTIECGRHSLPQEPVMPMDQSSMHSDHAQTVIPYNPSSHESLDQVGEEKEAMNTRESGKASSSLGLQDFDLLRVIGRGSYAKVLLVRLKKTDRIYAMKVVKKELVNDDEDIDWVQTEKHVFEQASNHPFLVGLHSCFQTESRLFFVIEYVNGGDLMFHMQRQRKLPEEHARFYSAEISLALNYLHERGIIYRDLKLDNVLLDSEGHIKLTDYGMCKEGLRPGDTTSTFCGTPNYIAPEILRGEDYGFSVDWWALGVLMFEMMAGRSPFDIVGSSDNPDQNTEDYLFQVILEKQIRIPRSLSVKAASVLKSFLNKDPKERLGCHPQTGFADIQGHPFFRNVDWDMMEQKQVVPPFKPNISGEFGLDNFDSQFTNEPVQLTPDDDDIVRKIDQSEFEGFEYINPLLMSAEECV
Format: biochemical
Summary of the method: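 IMAP fluorescence polarisation kinase assay: 15 pM baculovirus-expressed human PKCiota with 100 nM FAM-pseudosubstrate peptide and 150 μM ATP, 1 h at 25 °C. IMAP detection reagent then 2 h at 25 °C before FP measurement. Inhibition referenced to no-compound and no-enzyme controls for IC50 fitting.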
`CC1(C)CNCC[C@@H]1Nc1nc(-c2ccnc(Nc3cncc(F)c3)c2)nc2cncc(C3CC3)c12` [Example 265, 5-cyelopropyl-N-[(4S)-3,3-dimethyl-4-piperidyl]-2-[2-[(5-fluoro-3-pyridyl)amino]-4-pyridyl]pyrido[3,4-d]pyrimidin-4-amine] gave a pIC50 of 6.00 to 7.00. `CC1(C)CNCC[C@@H]1Nc1nc(-c2ccnc(Nc3cncc(Cl)c3)c2)nc2cncc(C3CC3)c12` [Example 266, 2-[2-[(5-chloro-3-pyridyl)amino]-4-pyridyl]-5-cyclopropyl-N-[(4S)-3,3-dimethyl-4-piperidyl]pyrido[3,4-d]pyrimidin-4-amine] was tested, and the pIC50 was 6.00 to 7.00. For `CC1(C)CNCC[C@@H]1Nc1nc(-c2ccnc(N[C@H](C(=O)O)c3ccccc3)c2)nc2cncc(C3CC3)c12` [Example 267, (2S)-2-[[4-[5-cyclopropyl-4-[[(4S)-3,3-dimethyl-4-piperidyl]amino]pyrido[3,4-d]pyrimidin-2-yl]-2-pyridyl]amino]-2-phenyl-acetic acid], the pIC50 was 5.00 to 6.00. In the case of `COc1cncc2nc(-c3ccnc(Nc4nc(F)ccc4F)c3)nc(N[C@H]3CCNCC3(C)C)c12` [Example 268, 2-[2-[(3,6-difluoro-2-pyridyl)amino]-4-pyridyl]-N-[(4S)-3,3-dimethyl-4-piperidyl]-5-methoxy-pyrido[3,4-d]pyrimidin-4-amine], the pIC50 was greater than 7.00. Molecule `COc1cncc2nc(-c3ccnc(Nc4ncccc4F)c3)nc(N[C@H]3CCNCC3(C)C)c12` [Example 269, N-[(4S)-3,3-dimethyl-4-piperidyl]-2-[2-[(3-fluoro-2-pyridyl)amino]-4-pyridyl]-5-methoxy-pyrido[3,4-d]pyrimidin-4-amine] has a pIC50 of 6.00 to 7.00. `Cc1cccc(Nc2cc(-c3nc(N[C@H]4CCNCC4(C)C)c4c(C5CCC5)cncc4n3)ccn2)n1` [Example 271, {5-Cyclobutyl-2-[2-(6-methyl-pyridin-2-ylamino)-pyridin-4-yl]-pyrido[3,4-d]pyrimidin-4-yl}-((S)-3,3-dimethyl-piperidin-4-yl)-amine] showed a pIC50 greater than 7.00. `Cc1nc(Nc2cc(-c3nc(N[C@H]4CCNCC4(C)C)c4c(C5CCC5)cncc4n3)ccn2)ccc1C#N` [Example 272] showed a pIC50 greater than 7.00. `CC1(C)CNCC[C@@H]1Nc1nc(-c2ccnc(Nc3nc4ccccc4o3)c2)nc2cncc(C3CCC3)c12` [Example 274, {2-[2-(Benzoxazol-2-ylamino)-pyridin-4-yl]-5-cyclobutyl-pyrido[3,4-d]pyrimidin-4-yl}-((S)-3,3-dimethyl-piperidin-4-yl)-amine] was tested, and the pIC50 was greater than 7.00. `CC1(C)CNCC[C@@H]1Nc1nc(-c2ccnc(Nc3nc4ccccn4n3)c2)nc2cncc(C3CCC3)c12` [Example 275, {5-Cyclobutyl-2-[2-([1,2,4]triazolo[1,5-a]pyridin-2-ylamino)-pyridin-4-yl]-pyrido[3,4-d]pyrimidin-4-yl}-((S)-3,3-dimethyl-piperidin-4-yl)-amine] gave a pIC50 greater than 7.00. In the case of `CC1(C)CNCC[C@@H]1Nc1nc(-c2ccnc(Nc3nc(F)c(F)cc3F)c2)nc2cncc(C3CC3)c12` [Example 278, {5-Cyclopropyl-2-[2-(3,5,6-trifluoro-pyridin-2-ylamino)-pyridin-4-yl]-pyrido[3,4-d]pyrimidin-4-yl}-((S)-3,3-dimethyl-piperidin-4-yl)-amine], the pIC50 was greater than 7.00. Work on `Cn1c(Nc2cc(-c3nc(N[C@H]4CCNCC4(C)C)c4c(C5CCC5)cncc4n3)ccn2)nc2ccccc21` [Example 281] yielded a pIC50 greater than 7.00. In the case of `Cn1nc(Nc2cc(-c3nc(N[C@H]4CCNCC4(C)C)c4c(C5CCC5)cncc4n3)ccn2)c2ccccc21` [Example 284, {5-Cyclobutyl-2-[2-(1-methyl-1H-indazol-3-ylamino)-pyridin-4-yl]-pyrido[3,4-d]pyrimidin-4-yl}-((S)-3,3-dimethyl-piperidin-4-yl)-amine], the pIC50 was greater than 7.00. `CC1(C)CNCC[C@@H]1Nc1nc(-c2cccc(Nc3nc(F)ccc3F)c2)nc2cncc(C3CCC3)c12` [Example 315, {5-Cyclobutyl-2-[3-(3,6-difluoro-pyridin-2-ylamino)-phenyl]-pyrido[3,4-d]pyrimidin-4-yl}-((S)-3,3-dimethyl-piperidin-4-yl)-amine] gave a pIC50 of 6.00 to 7.00. With `CC1(C)CNCC[C@@H]1Nc1nc(-c2ccnc(Nc3ncc(Cl)cc3F)c2)nc2cncc(C3CCC3)c12` [Example 316, {2-[2-(5-Chloro-3-fluoro-pyridin-2-ylamino)-pyridin-4-yl]-5-cyclobutyl-pyrido[3,4-d]pyrimidin-4-yl}-((S)-3,3-dimethyl-piperidin-4-yl)-amine] the pIC50 was greater than 7.00. `CC1(C)CNCC[C@@H]1Nc1nc(-c2ccnc(Nc3cccc(C#N)n3)c2)nc2cncc(C3CCC3)c12` [Example 317, 6-{4-[5-Cyclobutyl-4-((S)-3,3-dimethyl-piperidin-4-ylamino)-pyrido[3,4-d]pyrimidin-2-yl]-pyridin-2-ylamino}-pyridine-2-carbonitrile] showed a pIC50 greater than 7.00. Work on `CC1(C)CNCC[C@@H]1Nc1nc(-c2ccnc(Nc3ccc4cccc(F)c4n3)c2)nc2cncc(C3CCC3)c12` [Example 318, {5-Cyclobutyl-2-[2-(8-fluoro-quinolin-2-ylamino)-pyridin-4-yl]-pyrido[3,4-d]pyrimidin-4-yl}-((S)-3,3-dimethyl-piperidin-4-yl)-amine] yielded a pIC50 greater than 7.00. Work on `CC1(C)CNCC[C@@H]1Nc1nc(-c2ccnc(Nc3ncc(Cl)cc3F)c2)nc2cncc(C3CC3)c12` [Example 319, {2-[2-(5-Chloro-3-fluoro-pyridin-2-ylamino)-pyridin-4-yl]-5-cyclopropyl-pyrido[3,4-d]pyrimidin-4-yl}-((S)-3,3-dimethyl-piperidin-4-yl)-amine] yielded a pIC50 greater than 7.00. `CC1(C)CNCC[C@@H]1Nc1nc(-c2ccnc(Nc3ncc(C#N)cc3F)c2)nc2cncc(C3CCC3)c12` [Example 320, 6-{4-[5-Cyclobutyl-4-((S)-3,3-dimethyl-piperidin-4-ylamino)-pyrido[3,4-d]pyrimidin-2-yl]-pyridin-2-ylamino}-5-fluoro-nicotinonitrile] showed a pIC50 greater than 7.00. With `CC1(C)CNCC[C@@H]1Nc1nc(-c2cccc(Nc3ccccn3)c2)nc2cncc(C3CCC3)c12` [Example 321, {5-Cyclobutyl-2-[3-(pyridin-2-ylamino)-phenyl]-pyrido[3,4-d]pyrimidin-4-yl}-((S)-3,3-dimethyl-piperidin-4-yl)-amine] the pIC50 was 6.00 to 7.00. `Cc1cc(C#N)cnc1Nc1cc(-c2nc(N[C@H]3CCNCC3(C)C)c3c(C4CCC4)cncc3n2)ccn1` [Example 323, 6-{4-[5-Cyclobutyl-4-((S)-3,3-dimethyl-pipcridin-4-ylamino)-pyrido[3,4-d]pyrimidin-2-yl]-pyridin-2-ylamino}-5-methyl-nicotinonitrile] gave a pIC50 greater than 7.00. `CC1(C)CNCC[C@@H]1Nc1nc(-c2cccc(Nc3cnccn3)c2)nc2cncc(C3CCC3)c12` [Example 324, 5-Cyclobutyl-N-[(4S)-3,3-dimethyl-4-piperidyl]-2-[3-(pyrazin-2-ylamino)phenyl]pyrido[3,4-d]pyrimidin-4-amine] showed a pIC50 of 5.00 to 6.00. For `CC1(C)CNCC[C@@H]1Nc1nc(-c2ccnc(Nc3nc(F)cc(F)c3F)c2)nc2cncc(C3CC3)c12` [Example 325, 5-Cyclopropyl-N-[(4S)-3,3-dimethyl-4-piperidyl]-2-[2-[(3,4,6-trifluoro-2-pyridyl)amino]-4-pyridyl]pyrido[3,4-d]pyrimidin-4-amine], the pIC50 was greater than 7.00. With `CC1(C)CNCC[C@@H]1Nc1nc(-c2ccnc(Nc3nc(F)cc(F)c3F)c2)nc2cncc(C3CCC3)c12` [Example 326, 5-Cyclobutyl-N-[(4S)-3,3-dimethyl-4-piperidyl]-2-[2-[(3,4,6-trifluoro-2-pyridyl)amino]-4-pyridyl]pyrido[3,4-d]pyrimidin-4-amine] the pIC50 was greater than 7.00. Molecule `CC1(C)CNCC[C@@H]1Nc1nc(-c2ccnc(Nc3nc4ccccc4o3)c2)nc2cncc(C3CC3)c12` [Example 327, N-[4-[5-Cyclopropyl-4-[[(4S)-3,3-dimethyl-4-piperidyl]amino]pyrido[3,4-d]pyrimidin-2-yl]-2-pyridyl]-1,3-benzoxazol-2-amine] has a pIC50 greater than 7.00. Molecule `CC1(C)CNCC[C@@H]1Nc1nc(-c2ccnc(Nc3cc4ccccn4n3)c2)nc2cncc(C3CC3)c12` [Example 328, 5-Cyclopropyl-N-[(4S)-3,3-dimethyl-4-piperidyl]-2-[2-(pyrazolo[1,5-a]pyridin-2-ylamino)-4-pyridyl]pyrido[3,4-d]pyrimidin-4-amine] has a pIC50 greater than 7.00. `CC1(C)CNCC[C@@H]1Nc1nc(-c2ccnc(Nc3ncn(-c4ccccc4)n3)c2)nc2cncc(C3CCC3)c12` [Example 329, 5-Cyclobutyl-N-[(4S)-3,3-dimethyl-4-piperidyl]-2-[2-[(1-phenyl-1,2,4-triazol-3-yl)amino]-4-pyridyl]pyrido[3,4-d]pyrimidin-4-amine] showed a pIC50 greater than 7.00. In the case of `c1ccc(-n2cnc(Nc3cc(-c4nc(N5CCNCC5)c5c(C6CCC6)cncc5n4)ccn3)n2)cc1` [Example 330, 4-(5-Cyclobutyl-4-piperazin-1-yl-pyrido[3,4-d]pyrimidin-2-yl)-N-(1-phenyl-1,2,4-triazol-3-yl)pyridin-2-amine], the pIC50 was greater than 7.00.
